Experimental data taken from patent US20170202835A1, “OSMOLYTE-CONTAINING PREPARATION FOR THE TREATMENT OF DRY MUCOUS MEMBRANES” (Bitop AG, priority 2007, published 2017).
“Also recorded” adds a separate entry of the source.

Test system: TR146 cells
Assay: Mucus production in TR146 cells (PAS staining, image analysis)
Type: cell-based, human
Conditions: 0.5% FCS, 16 h incubation
Protocol: To evaluate possible effects of compatible solutes on mucus production an in vitro cell culture model was used. For this purpose a mucus producing cell line, TR146, served as a model for the situation in the human mouth. The cells were incubated with ectoine and other substances. After treatment the cells were stained with PAS (Periodic Acid-Schiff) to determine the mucus content.
TR146 cells were seeded and grown on glass plates in 96 wells until they reached nearly confluence. The glass plates were coated with Poly-L-Lysine to ensure a good attachment of the cells. After reaching confluence the cells were set to 0.5% FCS (Fetal Calf Serum) and were incubated with ectoine, glucosylglycerole and prostaglandine for 16 h, whereas the control sample was not treated further. Prostaglandine is known in the literature to stimulate mucus production (Tani et al., Biol Pharm Bull 25 (1), 2002, 14-18).
After the incubation time, cells were stained with a PAS staining kit from Sigma Aldrich to stain the whole mucus on top of the cells. For analysis pictures were taken with the Dino Eye Capture Camera. The pictures were afterwards analyzed with Image J software.
These areas were marked with the Image software Image J and the pixel area was determined. The average results were given as percentage relative to the control (=100%) (FIG. 2).

Row | SMILES | Mucus production (PAS-stained pixel area relative to control = 100%)
1 | CC1=NC(C(=O)O)CCN1 (stereo not drawn) [Ectoine, 1,4,5,6-tetrahydro-2-methyl-pyrimidine-4-carboxylic acid] | showed a tendency to stimulate the mucus production; also recorded: did so, too, although to a lesser extent
2 | CCCCC[C@H](O)/C=C/[C@H]1[C@H](O)CC(=O)[C@@H]1C/C=C\CCCC(=O)O [Prostaglandin E2, reference compound] | showed an induction of mucus production
3 | OCC(CO)O[C@H]1O[C@H](CO)[C@@H](O)[C@H](O)[C@H]1O [glucosylglycerol] | showed a tendency to stimulate the mucus production; also recorded: did so, too, although to a lesser extent
